# “And” between values parts separate entries of the source, which are not always exact repeats. Equal entries are not always repeated. Where two headings read alike, the source gives them in different places.
# Columns and labels:
# Details in all cases: in vivo
# [1] = test system: S. aureus strain USA300 (LAC)
# [2] = test system: S. aureus strain USA300 (LAC); remark: listed apart in the source
# [3] = test system: S. aureus strain USA300 (LAC); remark: listed apart in the source
# [4] = test system: S. aureus strain USA300 (LAC); remark: listed apart in the source
# [5] = test system: S. aureus strain USA300 (LAC); remark: listed apart in the source
# [6] = test system: S. aureus strain USA300 (LAC); remark: listed apart in the source
# [7] = test system: Staphylococcus aureus strain USA300 (LAC); design: species or system S. aureus
# [8] = test system: Staphylococcus aureus strain USA300 (LAC); design: species or system S. aureus; remark: listed apart in the source
smiles,measurement,setting,value
CC(=O)NC[C@H]1CN(c2ccc(N3CCOCC3)c(F)c2)C(=O)O1 [linezolid],"Cumulative survival (%) day 0, 2 h",[1],100%
same,"Cumulative survival (%) day 0, 4 h",[1],100%
same,"Cumulative survival (%) day 0, 8 h",[1],100%
same,"Cumulative survival (%) day 0, 12 h",[1],100%
same,Cumulative survival (%) day 1,[1],100% and 60%
same,Cumulative survival (%) Day 0,[2],100%
same,Cumulative survival (%) Day 1,[2],100%
same,Cumulative survival (%) Study end,[2],40%
same,"CFU/g Kidney Tissue (log10), individual mouse",[3],0.00 and 5.95 and 3.77 and 3.21
same,"CFU/g Kidney Tissue (log10), mean CFU/g",[3],3.23
same,"CFU/g Lung Tissue (log10), individual mouse",[3],3.13 and 7.64 and 4.36 and 3.55
same,"CFU/g Lung Tissue (log10), mean CFU/g",[3],4.67
same,Cumulative survival (%) Day 0,[4],100%
same,Cumulative survival (%) Day 1,[4],100%
same,Cumulative survival (%) Day 2,[4],60% and 100%
same,Cumulative survival day 1,[4],100%
same,Cumulative survival day 2,[4],60%
same,Cumulative survival day 3,[4],20%
same,Cumulative survival day 4,[4],20%
same,Cumulative survival day 5,[4],20%
same,Median survival time,[4],4 days and 2.5 days
same,survival rate,[4],90%
same,Cumulative survival (%) Day 1,[5],100%
same,Cumulative survival (%) Day 7,[5],70%
same,cumulative survival at day 7,[5],70%
same,survival rate at day 14 (study end),[5],70%
same,Cumulative survival (%) Day 1,[6],100%
same,Cumulative survival (%) Day 7,[6],70%
same,cumulative survival at day 7,[6],70%
same,survival rate at study end,[6],60%
same,Average area of abscess (mm^2) Day 0,[7],0.0 mm^2
same,Average area of abscess (mm^2) Day 1,[7],0.0 mm^2
same,Average area of abscess (mm^2) Day 2,[7],6.6 mm^2
same,Average area of abscess (mm^2) Day 3,[7],4.9 mm^2
same,Average area of abscess (mm^2) Day 4,[7],3.7 mm^2
same,"mean area of skin abscess, day 1",[7],about 0.0 mm^2
same,"mean area of skin abscess, day 2",[7],~6.6 mm^2
same,"mean area of skin abscess, day 3",[7],~4.9 mm^2
same,"mean area of skin abscess, day 4",[7],~3.7 mm^2
same,"Day 4 CFU/g tissue (log10), Mean CFU/g",[8],5.2 CFU/g tissue (log10)
same,"Day 4 CFU/g tissue (log10), individual mice",[8],5.7 CFU/g tissue (log10) and 5.2 CFU/g tissue (log10) and 6.0 CFU/g tissue (log10) and 4.5 CFU/g tissue (log10) and 4.8 CFU/g tissue (log10) and 5.1 CFU/g tissue (log10) and 5.4 CFU/g tissue (log10) and 4.9 CFU/g tissue (log10)
same,"Day 4 CFU/g tissue (log10), median",[8],5.1 CFU/g tissue (log10)
same,"bacterial burden in the infected area, average",[8],about 5.2 log 10 CFU/g

# From US8715673B2 (priority 2011, dated 2014)
